Measurements published in patent US9902740B2, “Macrocyclic benzodiazepine dimers, conjugates thereof, preparation and uses” (BRISTOL-MYERS SQUIBB COMPANY, priority 2015, dated 2018).
Like-named read-outs stand apart in the source and are kept apart here.

Columns and labels:
Type in all cases: cell-based
[1] = tested on: OVCAR3 human ovarian cancer cell line; assay: Cytotoxic activity of dimers against OVCAR3 cells; conditions: for EC50: Table 5 comparative activities, OVCAR3
Source text: (§1) H226 is a human lung cancer cell line. N87 is a human gastric cancer cell line. OVCAR3 is a human ovarian cancer cell line. HCT116 is a human colon cancer cell line. HCT116/VM46 is a human colon cancer cell line that is multi-drug and paclitaxel resistant.

[2] = tested on: HCT116 human colon cancer cell line; assay: Cytotoxic activity of dimers against HCT116 cells
Source text: as §1

[3] = tested on: HCT116/VM46 human colon cancer cell line (multi-drug and paclitaxel resistant); assay: Cytotoxic activity of dimers against HCT116/VM46 cells
Source text: as §1

[4] = tested on: N87 human gastric cancer cell line; assay: Cytotoxic activity of dimers against N87 cells; conditions: for IC50: read-out: Cell Line (IC50, nM) N87; for EC50: Table 5 comparative activities, N87
Source text: as §1

[5] = tested on: H226 human lung cancer cell line; assay: Cytotoxic activity of dimers against H226 cells; conditions: for EC50: Table 5 comparative activities, H226
Source text: as §1

[6] = Table 4, OVCAR3 human ovarian cancer cell line, read-out: Cell Line (IC50, nM) OVCAR3
[7] = Table 4, N87 human gastric cancer cell line
[8] = Table 4, H226 human lung cancer cell line, read-out: Cell Line (IC50, nM) H226
[9] = Homo sapiens, OVCAR-3, read-out: Cell Line (IC50, nM) OVCAR3
[10] = Homo sapiens, HCT-116/VM46, Table 4
[11] = Homo sapiens, NCI-H226, read-out: Cell Line (IC50, nM) H226

| Compound | IC50 [1, 6] [nM] | IC50 ([2]; Table 4) [nM] | IC50 ([3]; Table 4) [nM] | IC50 [4, 7] [nM] | IC50 [5, 8] [nM] | EC50 [1] [nM] | EC50 [4] [nM] | EC50 [5] [nM] | further results |
| --- | --- | --- | --- | --- | --- | --- | --- | --- | --- |
| COCCOc1ccc(C2=CN3C(=O)c4cc5c(cc4N=C[C@@H]3C2)OCCCOc2cc3c(cc2OCCCCCCCCCCCCO5)C(=O)N2C=C(c4ccc(OCCOC)cc4)C[C@H]2C=N3)cc1 [IIc-3] | 104 | 13 | 58 | 29 | 32 |  |  |  |  |
| Nc1ccc2c(c1)CN1C(=O)c3cc4c(cc3N=C[C@@H]1C2)OCCCOc1cc2c(cc1OCCCCCCCCO4)C(=O)N1Cc3ccccc3C[C@H]1C=N2 [IIb-6] |  |  |  |  |  |  |  |  | IC50 [1, 9]: 0.21 nM; IC50 ([2]; HCT-116, Table 4): 0.016 nM; IC50 [3, 10]: 0.66 nM; IC50 ([4]; Homo sapiens): 0.25 nM; IC50 [5, 11]: 0.21 nM |
| C=C1C[C@H]2C=Nc3cc4c(cc3C(=O)N2C1)OCCCC/C=C/CCCCOc1cc2c(cc1OCCCO4)N=C[C@@H]1CC(=C)CN1C2=O [IIa-10] | 0.47 |  | 11 | 2.3 | 2 |  |  |  |  |
| Nc1ccc(CN2CCCCOc3cc4c(cc3OCCCOc3cc5c(cc3OCCCC2)C(=O)N2Cc3ccccc3C[C@H]2C=N5)N=C[C@@H]2Cc3ccccc3CN2C4=O)cc1 [IIb-8] | 0.25 | 0.015 | 1.2 | 0.27 | 0.13 |  |  |  |  |
| COc1ccc(C2=CN3C(=O)c4cc5c(cc4N=C[C@@H]3C2)OCCCOc2cc3c(cc2OCCCCCCCCCCCCO5)C(=O)N2C=C(c4ccc(OC)cc4)C[C@H]2C=N3)cc1 [IIc-2] | > 250 | 48 | > 250 | 230 | 220 |  |  |  |  |
| CN1CCN(c2ccc(C3=CN4C(=O)c5cc6c(cc5NC[C@@H]4C3)OCCCOc3cc4c(cc3OCCCCCCCCO6)C(=O)N3C=C(c5ccc(N6CCN(C)CC6)cc5)C[C@H]3CN4)cc2)CC1 [IId-4] | 20 | 2 | 4.8 | 12 | 8.1 |  |  |  |  |
| COc1cc2c(cc1OCCCOc1cc3c(cc1OC)C(=O)N1CCC[C@H]1C=N3)N=C[C@@H]1CCCN1C2=O [Dimer A-4, reference compound] |  |  |  |  |  |  |  |  | EC50 ([1]; Homo sapiens, OVCAR-3): 56 nM; EC50 ([4]; Homo sapiens): 63 nM; EC50 ([5]; Homo sapiens, NCI-H226): 70 nM |
| O=C1c2cc3c(cc2N=C[C@@H]2CCCN12)OCCCOc1cc2c(cc1OCCCCCCCCCCO3)C(=O)N1CCC[C@H]1C=N2 [IIa-4] | 20 |  |  | 22 | 12 | 20 | 22 | 12 |  |
| CC1=CN2C(=O)c3cc4c(cc3N=C[C@@H]2C1)OCCCOc1cc2c(cc1OCCCCCCCCO4)C(=O)N1C=C(c3ccc(N)cc3)C[C@H]1C=N2 [IId-1] |  |  |  |  |  |  |  |  | IC50 [1, 9]: 1.2 nM; IC50 ([2]; HCT-116, Table 4): 0.14 nM; IC50 [3, 10]: 1.2 nM; IC50 ([4]; Homo sapiens): 1.4 nM; IC50 [5, 11]: 0.66 nM |
| O=C1c2cc3c(cc2N=C[C@@H]2CCCN12)OCCCOc1cc2c(cc1OCCCCCCCCCCCO3)C(=O)N1CCC[C@H]1C=N2 [IIa-5] | 78 |  |  | 150 | 69 | 78 | 150 | 69 |  |
| C=C1C[C@H]2C=Nc3cc4c(cc3C(=O)N2C1)OCCCCCCCCOc1cc2c(cc1OCCCO4)N=C[C@@H]1Cc3ccc(N)cc3CN1C2=O [IId-2] | 0.71 | 0.11 | 2.8 | 1.1 | 0.56 |  |  |  |  |
| O=C1c2cc3c(cc2N=C[C@@H]2CCCN12)OCCCOc1cc2c(cc1OCCCCCCCCCO3)C(=O)N1CCC[C@H]1C=N2 [IIa-3] | 7.3 |  |  | 8.3 | 8.7 | 7.3 | 8.3 | 8.7 |  |
| O=C1c2cc3c(cc2N=C[C@@H]2CC(c4ccccc4)=CN12)OCCCOc1cc2c(cc1OCCCCCCCCCCO3)C(=O)N1C=C(c3ccccc3)C[C@H]1C=N2 [IIc-1] | 7.6 |  | 30 | 12 | 12 |  |  |  |  |
| O=C1c2cc3c(cc2N=C[C@@H]2CCCN12)OCCCOc1cc2c(cc1OCCCCCCCCCCCCO3)C(=O)N1CCC[C@H]1C=N2 [IIa-6] | 140 |  |  | 310 | 110 | 140 | 310 | 110 |  |
| O=C1c2cc3c(cc2N=C[C@@H]2CCCN12)OCCCCCOc1cc2c(cc1OCCCCCCCCCCCCO3)C(=O)N1CCC[C@H]1C=N2 [IIa-8] | 9.9 |  |  | 15 | 10 | 9.9 | 15 | 10 |  |
| O=C1c2cc3c(cc2N=C[C@@H]2Cc4ccccc4CN12)OCCCOc1cc2c(cc1OCCCCCCCCO3)C(=O)N1Cc3ccccc3C[C@H]1C=N2 [IIb-1] | 0.33 |  | 1.3 | 0.53 | 0.22 |  |  |  |  |
